Data set [1] can be described thus: Drug distribution study (brain and plasma, LC-MS/MS). The conditions noted are these: 0.1 mg/kg s.c.; for Kp at 5 min / Kp at 10 min / Kp at 0.5 h / Kp at 1 h: Swiss Webster, mouse, sc, read-out: B/P (brain-to-plasma concentration ratio); for Kp at 0.5 h: 30 min; for Kp at 1 h: 60 min. The format is in vivo, mouse. How it is done:
To examine the potential for these compounds to exert their effects on the central nervous system, a drug distribution study monitoring blood–brain barrier penetration was used. […] Plasma and brain homogenate were then analyzed via liquid chromatography with tandem mass spectrometry (LC-MS/MS) to allow calculation of brain-to-plasma ratios.[78]
The test compound was administered s.c., and a group of Swiss Webster mice was euthanized by decapitation at each time point (5, 10, 30, 60 min post injection) allowing whole brain and blood samples to be harvested. Brain samples were washed with saline to ensure removal of any blood on the isolated brain and were then immersed in 300 μL saline. Blood samples were centrifuged for 10 min (15,000g; 4 °C) to collect plasma. Brain and plasma samples were stored at −80 °C until further analysis.
Identification and quantification of test compound in mouse brain and plasma were performed using a modification of a previously described method with an internal standard of naloxone-d5.[126] Compounds were extracted from both blood and brain by a liquid/liquid extraction. Briefly, brain tissue samples were homogenized 1-part tissue to 3-parts water. Seven-point calibration curves (10–1000 ng/mL or ng/g) in plasma, drug free control, a negative control without internal standard in plasma and brain, and quality control specimens in plasma and brain (30, 300, and 750 ng/mL or ng/g) were prepared and analyzed with each batch of samples. […], was added at 10 ng/mL concentration to aliquots of either 100 μL for blood or 400 μL for brain homogenate to each calibrator, control, or specimen except the negative control. To these samples, 0.5 mL of saturated carbonate/bicarbonate buffer (1:1, pH 9.5) and 2.0 mL of chloroform/2-propanol (8:2) were added. The samples were then mixed and centrifuged. The top, aqueous layer was aspirated, and the organic layer was transferred to a clean test tube and evaporated to dryness under nitrogen. The samples were then reconstituted in 80:[…] and transferred to autosampler vials for analysis. The chromatographic separation of test compounds and naloxone-d5 was accomplished using a Shimadzu Nexera X2 liquid chromatography system and a Zorbax XDB-C18 4.6 × 75 mm, 3.5 μm column (Agilent Technologies, Santa Clara, CA). The mobile phases consisted of (A) water with 1 g/L ammonium formate and 0.1% formic acid, and (B) methanol. The flow rate was set to 1 mL/min. The mobile phase started with 20% B and was increased to 80% B at 1.0 min and held constant for 1.5 min before returning to 20% B. The system detector was a Sciex 6500 QTRAP system with an IonDrive Turbo V source for TurboIonSpray (Sciex, Ontario, Canada) that had the curtain gas flow rate set at 30 mL/min and the ion source gases 1 and 2 at 60 mL/min. The source temperature was set at 650 °C with an ionspray voltage was 5500 V. The declustering potential was 58 eV.
The primary dependent measures are (1) the plasma concentration of the test compound (μg/mL), (2) the brain concentration of the test compound (μg/g), and (3) the brain-to-plasma concentration ratio calculated as [brain]/[plasma]. Concentrations were determined by a linear regression plot based on peak ratios of the calibrators. Data are shown as mean ± SEM. Data were compared using one-way ANOVA as appropriate and a significant ANOVA was followed by a Dunnet’s post hoc test as appropriate. Statistical significance was defined as p < 0.05.

A further data set deals with hERG (Kv11.1) (Homo sapiens, UniProt Q12809). Briefly: Automated patch-clamp hERG inhibition assay in CHO-hERG cells. A general note: Patch clamp records ionic current or voltage across a cell membrane.
For the next data set, the target named is hERG (Homo sapiens, UniProt Q12809). Described as above.

pIC50: −log10 of the molar value. Where two headings read alike, the source gives them in different places.

This is an account of results in article PMC11181328 (Journal of Medicinal Chemistry, 2024).

Chain of hERG (Q12809 whole entry): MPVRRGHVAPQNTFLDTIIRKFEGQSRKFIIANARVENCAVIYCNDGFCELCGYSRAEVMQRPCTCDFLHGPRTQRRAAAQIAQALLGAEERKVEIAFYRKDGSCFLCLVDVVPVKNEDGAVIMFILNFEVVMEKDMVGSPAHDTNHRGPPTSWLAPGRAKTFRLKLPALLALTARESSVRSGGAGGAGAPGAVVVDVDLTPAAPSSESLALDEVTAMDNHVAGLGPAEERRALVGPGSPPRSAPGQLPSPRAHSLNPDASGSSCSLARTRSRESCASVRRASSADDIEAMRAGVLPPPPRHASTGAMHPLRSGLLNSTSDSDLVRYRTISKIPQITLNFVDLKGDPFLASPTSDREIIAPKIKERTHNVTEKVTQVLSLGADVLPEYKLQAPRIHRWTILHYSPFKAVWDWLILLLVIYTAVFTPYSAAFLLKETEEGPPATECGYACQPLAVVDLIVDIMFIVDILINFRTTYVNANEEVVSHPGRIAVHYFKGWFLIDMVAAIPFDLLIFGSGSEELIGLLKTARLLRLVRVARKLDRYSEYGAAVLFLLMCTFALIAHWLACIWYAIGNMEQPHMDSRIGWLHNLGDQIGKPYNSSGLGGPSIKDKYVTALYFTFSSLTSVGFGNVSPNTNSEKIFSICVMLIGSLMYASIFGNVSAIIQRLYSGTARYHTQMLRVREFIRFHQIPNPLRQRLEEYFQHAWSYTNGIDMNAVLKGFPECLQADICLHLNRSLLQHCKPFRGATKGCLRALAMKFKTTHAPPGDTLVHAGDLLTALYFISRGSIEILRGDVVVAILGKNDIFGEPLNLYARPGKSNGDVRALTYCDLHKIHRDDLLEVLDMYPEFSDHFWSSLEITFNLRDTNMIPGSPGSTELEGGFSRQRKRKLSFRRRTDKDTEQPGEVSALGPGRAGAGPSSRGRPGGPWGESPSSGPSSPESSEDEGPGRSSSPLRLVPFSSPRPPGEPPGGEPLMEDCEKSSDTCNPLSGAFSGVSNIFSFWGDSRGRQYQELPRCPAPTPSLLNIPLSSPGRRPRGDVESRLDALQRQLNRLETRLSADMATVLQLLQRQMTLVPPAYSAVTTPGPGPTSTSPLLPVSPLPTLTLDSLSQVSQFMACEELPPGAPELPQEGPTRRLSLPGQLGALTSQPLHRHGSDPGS
Chain of hERG (Kv11.1) (Q12809 whole entry): as above

On to `CN(C(=O)/C=C/c1ccco1)[C@H]1CC[C@@]2(O)[C@H]3Cc4ccc(O)c5c4[C@@]2(CCN3CC2CC2)[C@H]1O5.Cl` [Compound 21, 17-Cyclopropylmethyl-3,14β-dihydroxy-4,5α-epoxy-6α-[(2E)-3′-(furan-2″-yl)-N-methylprop-2-enamido]morphinan Hydrochloride], for which the “time point of highest plasma concentration” value in data set [1] came to 5 min. In addition, in data set [1] (brain and plasma), the Kp at 5 min was found to be 0.027, the Kp at 10 min was determined as 0.186, the Kp at 0.5 h amounted to 0.633 and the Kp at 1 h is 0.938. Besides, the pIC50 (as a rule, the IC50 on a negative log10 scale, so that one unit is a factor of ten) against hERG (Kv11.1) is 5.60.

Regarding `CN(C(=O)/C=C/c1ccco1)[C@@H]1CC[C@@]2(O)[C@H]3Cc4ccc(O)c5c4[C@@]2(CCN3CC2CC2)[C@H]1O5.Cl` [Compound 23, 17-Cyclopropylmethyl-3,14β-dihydroxy-4,5α-epoxy-6β-[(2E)-3′-(furan-2″-yl)-N-methylprop-2-enamido]morphinan Hydrochloride], the “time point of highest plasma concentration” value in data set [1] stood at 5 min. In data set [1] (brain), the Kp at 5 min came to 0.05, the Kp at 10 min turned out to be 0.762, the Kp at 0.5 h stood at 0.645 and the Kp at 1 h amounted to 1.45. For the same molecule, the pIC50 at hERG is 5.96.
